{"source": "patent US11331289B2", "about": "“Antimicrobial composition” (priority 2017, dated 2022)", "key": {"MRSA 16110": {"test_system": "MRSA 16110", "experiment": "Time-killing curve, inoculum 5.10^5 CFU/ml (MIC 1 μg/ml)", "type": "cell-based, Staphylococcus aureus", "method": "(§1) The objective of this study is to assess in vitro the time-killing curves of oxyclozanide against four strains of Methicillin-Resistant Staphylococcus from dogs.\n(§2) Two Methicillin-Resistant Staphylococcus aureus (MRSA) and two Methicillin-Resistant Staphylococcus pseudintermedius (MRSP) isolated from the clinics have been tested.\n(§3) The assessment of time-killing curves has been realized by a broth macrodilution method (Mueller-Hinton II Broth).\n(§4) Oxyclozanide is diluted in (DMSO) into sterile tubes in order to obtain the following concentrations from 800 to 6.25 μg/ml. Those concentrations and stock standard solution are then diluted (1/10) in Mueller-Hinton II Broth in order to obtain the following concentrations from […] (See Table 2).\n(§5) Each operation is performed under sterile conditions. Each working standard solution (10*the final active ingredient concentration) is distributed in tubes (1 ml, for a final volume of 10 ml after addition of 9 ml of inoculum). One tube without active ingredient is used as growth control (Concentration=0).\n(§6) Bacterial isolates are sub-cultured from one cryobead on Columbia agar supplemented with 5% of blood. Pure cultures are incubated during 18-24 hours at 37° C. Three to five isolated colonies of similar appearance are selected from a previous culture and transferred into tubes containing 9 ml of Mueller-Hinton II Broth. The broth is incubated during 12-18 hours at 37° C. 0.5 to 1 ml of this broth is inoculated to another Mueller-Hinton II Broth 9 ml tube which is incubated during 3 to 4 hours at 37° C. to reach the exponential growth phase. The bacterial inoculum grown exponential phase is suspended to an optical density of McFarland standard scale 0.5 equivalent to a bacterial density of 10^8 CFU/ml and then adjusted to a concentration of about 5.10^5 CFU/ml as indicated by the guideline CLSI M26-A and to a second inoculum tested: 10^6 CFU/ml.\n(§7) 9 ml of bacterial inoculum grown to exponential phase is added to 1 ml of active ingredient (or Mueller Hinton II Broth for the growth control). Tubes are incubated at 35° C. during 24 hours.\n(§8) At times 0, 2, 4, 6 and 24 hours, 100 μl of broth of each tube is sampled and diluted in microplates:\n(§9) Each well is re-cultured by streaking 10 μl on Columbia agar supplemented with 5% of blood. Plates are incubated at 37° C. during 18-24 hours incubation. Thus, residual bacterial concentrations are determined (CFU/ml). Results are expressed in log10 values of CFU/ml over-time in broth. Due to the procedure used, the minimal bacterial concentration that can be assessed is 10^2 CFU/ml."}, "MRSA 16116": {"test_system": "MRSA 16116", "experiment": "Time-killing curve, inoculum 10^6 CFU/ml (MIC 0.5 μg/ml)", "type": "cell-based, Staphylococcus aureus", "method": "as §1, §2, §3, §4, §5, §6, §7, §8, §9"}}, "data": [{"smiles": "O=C(Nc1cc(Cl)cc(Cl)c1O)c1c(O)c(Cl)cc(Cl)c1Cl", "note": "[Oxyclozanide]", "values": [{"measurement": "Counting results", "setting": "MRSA 16110; 8 MIC, 6 h", "value": "1.000E+02", "unit": "CFU/ml"}, {"measurement": "Counting results", "setting": "MRSA 16110; 8 MIC, 24 h", "value": "1.000E+02", "unit": "CFU/ml"}, {"measurement": "Counting results", "setting": "MRSA 16110; 16 MIC, 0 h", "value": "4.100E+05", "unit": "CFU/ml"}, {"measurement": "Counting results", "setting": "MRSA 16110; 16 MIC, 2 h", "value": "1.000E+02", "unit": "CFU/ml"}, {"measurement": "Counting results", "setting": "MRSA 16110; 16 MIC, 4 h", "value": "1.000E+02", "unit": "CFU/ml"}, {"measurement": "Counting results", "setting": "MRSA 16110; 16 MIC, 6 h", "value": "1.000E+02", "unit": "CFU/ml"}, {"measurement": "Counting results", "setting": "MRSA 16110; 16 MIC, 24 h", "value": "1.000E+02", "unit": "CFU/ml"}, {"measurement": "Time to obtain bactericidal effect at 4 MIC", "setting": "MRSA 16110; 16110/5.10^5 CFU/ml, >=3 log10 decrease in CFU", "value": 2, "unit": "h"}, {"measurement": "Counting results", "setting": "MRSA 16110; ¼ MIC, 0 h", "value": "4.100E+05", "unit": "CFU/ml"}, {"measurement": "Counting results", "setting": "MRSA 16110; ¼ MIC, 2 h", "value": "1.400E+06", "unit": "CFU/ml"}, {"measurement": "Counting results", "setting": "MRSA 16110; ¼ MIC, 4 h", "value": "9.500E+07", "unit": "CFU/ml"}, {"measurement": "Counting results", "setting": "MRSA 16110; ¼ MIC, 6 h", "value": "1.600E+08", "unit": "CFU/ml"}, {"measurement": "Counting results", "setting": "MRSA 16110; ¼ MIC, 24 h", "value": "1.100E+09", "unit": "CFU/ml"}, {"measurement": "Counting results", "setting": "MRSA 16110; ½ MIC, 0 h", "value": "4.100E+05", "unit": "CFU/ml"}, {"measurement": "Counting results", "setting": "MRSA 16110; ½ MIC, 2 h", "value": "6.300E+05", "unit": "CFU/ml"}, {"measurement": "Counting results", "setting": "MRSA 16110; ½ MIC, 4 h", "value": "9.900E+06", "unit": "CFU/ml"}, {"measurement": "Counting results", "setting": "MRSA 16110; ½ MIC, 6 h", "value": "3.100E+07", "unit": "CFU/ml"}, {"measurement": "Counting results", "setting": "MRSA 16110; ½ MIC, 24 h", "value": "1.900E+08", "unit": "CFU/ml"}, {"measurement": "Counting results", "setting": "MRSA 16116; 1 MIC, 0 h", "value": "1.500E+06", "unit": "CFU/ml"}, {"measurement": "Counting results", "setting": "MRSA 16116; 1 MIC, 2 h", "value": "3.300E+05", "unit": "CFU/ml"}, {"measurement": "Counting results", "setting": "MRSA 16116; 1 MIC, 4 h", "value": "3.900E+05", "unit": "CFU/ml"}, {"measurement": "Counting results", "setting": "MRSA 16116; 1 MIC, 6 h", "value": "1.600E+06", "unit": "CFU/ml"}, {"measurement": "Counting results", "setting": "MRSA 16116; 1 MIC, 24 h", "value": "2.700E+07", "unit": "CFU/ml"}, {"measurement": "Counting results", "setting": "MRSA 16116; 2 MIC, 0 h", "value": "1.500E+06", "unit": "CFU/ml"}, {"measurement": "Counting results", "setting": "MRSA 16116; 2 MIC, 2 h", "value": "2.200E+04", "unit": "CFU/ml"}, {"measurement": "Counting results", "setting": "MRSA 16116; 2 MIC, 4 h", "value": "1.400E+03", "unit": "CFU/ml"}, {"measurement": "Counting results", "setting": "MRSA 16116; 2 MIC, 6 h", "value": "5.000E+02", "unit": "CFU/ml"}, {"measurement": "Counting results", "setting": "MRSA 16116; 2 MIC, 24 h", "value": "5.900E+05", "unit": "CFU/ml"}, {"measurement": "Counting results", "setting": "MRSA 16116; 4 MIC, 0 h", "value": "1.500E+06", "unit": "CFU/ml"}, {"measurement": "Counting results", "setting": "MRSA 16116; 4 MIC, 2 h", "value": "2.000E+02", "unit": "CFU/ml"}, {"measurement": "Counting results", "setting": "MRSA 16116; 4 MIC, 4 h", "value": "2.000E+02", "unit": "CFU/ml"}, {"measurement": "Counting results", "setting": "MRSA 16116; 4 MIC, 6 h", "value": "1.000E+02", "unit": "CFU/ml"}, {"measurement": "Counting results", "setting": "MRSA 16116; 4 MIC, 24 h", "value": "1.000E+02", "unit": "CFU/ml"}, {"measurement": "Counting results", "setting": "MRSA 16116; 8 MIC, 0 h", "value": "1.500E+06", "unit": "CFU/ml"}, {"measurement": "Counting results", "setting": "MRSA 16116; 8 MIC, 2 h", "value": "1.000E+02", "unit": "CFU/ml"}, {"measurement": "Counting results", "setting": "MRSA 16116; 8 MIC, 4 h", "value": "1.000E+02", "unit": "CFU/ml"}, {"measurement": "Counting results", "setting": "MRSA 16116; 8 MIC, 6 h", "value": "1.000E+02", "unit": "CFU/ml"}, {"measurement": "Counting results", "setting": "MRSA 16116; 8 MIC, 24 h", "value": "1.000E+02", "unit": "CFU/ml"}, {"measurement": "Counting results", "setting": "MRSA 16116; 16 MIC, 0 h", "value": "1.500E+06", "unit": "CFU/ml"}, {"measurement": "Counting results", "setting": "MRSA 16116; 16 MIC, 2 h", "value": "3.000E+02", "unit": "CFU/ml"}, {"measurement": "Counting results", "setting": "MRSA 16116; 16 MIC, 4 h", "value": "1.000E+02", "unit": "CFU/ml"}, {"measurement": "Counting results", "setting": "MRSA 16116; 16 MIC, 6 h", "value": "1.000E+02", "unit": "CFU/ml"}, {"measurement": "Counting results", "setting": "MRSA 16116; 16 MIC, 24 h", "value": "1.000E+02", "unit": "CFU/ml"}, {"measurement": "Time to obtain bactericidal effect at 4 MIC", "setting": "MRSA 16116; 16116/10^6 CFU/ml, >=3 log10 decrease in CFU", "value": 2, "unit": "h"}, {"measurement": "Counting results", "setting": "MRSA 16116; ¼ MIC, 0 h", "value": "1.500E+06", "unit": "CFU/ml"}, {"measurement": "Counting results", "setting": "MRSA 16116; ¼ MIC, 2 h", "value": "2.800E+06", "unit": "CFU/ml"}, {"measurement": "Counting results", "setting": "MRSA 16116; ¼ MIC, 4 h", "value": "2.600E+07", "unit": "CFU/ml"}, {"measurement": "Counting results", "setting": "MRSA 16116; ¼ MIC, 6 h", "value": "3.000E+08", "unit": "CFU/ml"}, {"measurement": "Counting results", "setting": "MRSA 16116; ¼ MIC, 24 h", "value": "3.900E+08", "unit": "CFU/ml"}, {"measurement": "Counting results", "setting": "MRSA 16116; ½ MIC, 0 h", "value": "1.500E+06", "unit": "CFU/ml"}, {"measurement": "Counting results", "setting": "MRSA 16116; ½ MIC, 2 h", "value": "3.000E+06", "unit": "CFU/ml"}, {"measurement": "Counting results", "setting": "MRSA 16116; ½ MIC, 4 h", "value": "3.600E+07", "unit": "CFU/ml"}, {"measurement": "Counting results", "setting": "MRSA 16116; ½ MIC, 6 h", "value": "2.300E+08", "unit": "CFU/ml"}, {"measurement": "Counting results", "setting": "MRSA 16116; ½ MIC, 24 h", "value": "3.100E+08", "unit": "CFU/ml"}]}]}
